# Measurements from PubChem BioAssay AID314 (DTP/NCI, 2004).
# Several values for one entry are separate records, joined by “and”; a condition that tells them apart may be missing. Equal values may be shown once. Toxic doses and inconclusive results are not listed.
# Tested on: DBA/2 mice, P1534 leukemia ip, survival T/C
# Assay: NCI In Vivo Anticancer Drug Screen. Data for tumor model P1534 Leukemia (intraperitoneal) in DBA/2 mice
# Conditions: endpoint: mean survival time, higher = longer survival
# Procedure: The antitumor activity of compounds was measured in mice bearing transplantable tumors. Survival or tumor size were measured and the results are expressed as the measurement made in the treated group (T) divided by the measurement made in the vehicle treated control group (C). The tumor model used in this assay is P1534 Leukemia (intraperitoneal) in DBA/2 mice
# [1] = dose: 40.0 mg/kg/injection, schedule: Q01DX010 (ip), vehicle: saline
# [2] = dose: 5.0 mg/kg/injection, schedule: Q01DX010 (ip), vehicle: saline
# [3] = dose: 10.0 mg/kg/injection, schedule: Q01DX010 (ip), vehicle: saline
# [4] = dose: 2.0 mg/kg/injection, schedule: Q01DX010 (ip), vehicle: saline
# [5] = dose: 4.0 mg/kg/injection, schedule: Q01DX010 (ip), vehicle: saline
# [6] = dose: 0.5 mg/kg/injection, schedule: Q01DX010 (ip), vehicle: saline
# [7] = dose: 1.0 mg/kg/injection, schedule: Q01DX010 (ip), vehicle: saline
# [8] = dose: 6.25 mg/kg/injection, schedule: Q01DX010 (ip), vehicle: saline
# [9] = dose: 12.5 mg/kg/injection, schedule: Q01DX010 (ip), vehicle: saline
# [10] = dose: 25.0 mg/kg/injection, schedule: Q01DX010 (ip), vehicle: saline
# [11] = dose: 12.5 mg/kg/injection, schedule: Q01DX010 (sc), vehicle: steriod suspending solution
# [12] = dose: 15.6 mg/kg/injection, schedule: Q01DX010 (ip), vehicle: saline
# [13] = dose: 31.3 mg/kg/injection, schedule: Q01DX010 (ip), vehicle: saline
# [14] = dose: 62.5 mg/kg/injection, schedule: Q01DX010 (ip), vehicle: saline
# [15] = dose: 125.0 mg/kg/injection, schedule: Q01DX010 (ip), vehicle: saline
# [16] = dose: 250.0 mg/kg/injection, schedule: Q01DX010 (ip), vehicle: saline
# [17] = dose: 2.5 mg/kg/injection, schedule: Q01DX010 (ip), vehicle: saline
# [18] = dose: 1.25 mg/kg/injection, schedule: Q01DX010 (ip), vehicle: saline
structure (smiles),measurement,setting,value
CN(N=O)C(=O)NC(C=O)C(O)C(O)C(O)CO (stereo unspecified),T/C,[1],122 % of control
same,T/C,"dose: 90.0 mg/kg/injection, schedule: Q01DX010 (ip), vehicle: saline",100 % of control
same,T/C,"dose: 135.0 mg/kg/injection, schedule: Q01DX010 (ip), vehicle: saline",86 % of control
NC(=O)c1ccc(N)nc1,T/C,"dose: 3.0 mg/kg/injection, schedule: Q01DX010 (ip), vehicle: saline",90 % of control
CC[n+]1c(-c2ccccc2)c2cc(N)ccc2c2ccc(N)cc21,T/C,[2],113 % of control
same,T/C,[3],120 % of control
CC(CCC(C)OS(C)(=O)=O)OS(C)(=O)=O (stereo unspecified),T/C,[4],96 % of control and 103 % of control
same,T/C,[5],100 % of control and 107 % of control
same,T/C,"dose: 8.0 mg/kg/injection, schedule: Q01DX010 (ip), vehicle: saline",96 % of control and 100 % of control
N=[N+]=CC(=O)OCC(N)C(=O)O (stereo unspecified),T/C,[6],94 % of control
same,T/C,[7],103 % of control and 120 % of control
same,T/C,[4],120 % of control and 123 % of control
same,T/C,[5],117 % of control
CC(=O)c1cccc(NC2C(N)C(NC(=O)N(C)C)(C(C)O)C(C)(O)C2(O)COC(=O)c2c(C)cccc2O)c1 (stereo unspecified),T/C,"dose: 0.25 mg/kg/injection, schedule: Q01DX010 (ip), vehicle: saline",90 % of control
COC1C(OC(N)=O)C(O)C(Oc2ccc3c(O)c(NC(=O)c4ccc(O)c(CC=C(C)C)c4)c(=O)oc3c2C)OC1(C)C (stereo unspecified),T/C,[8],100 % of control
same,T/C,[9],104 % of control
same,T/C,[10],100 % of control
same,T/C,"dose: 50.0 mg/kg/injection, schedule: Q01DX010 (ip), vehicle: saline",103 % of control and 104 % of control
same,T/C,"dose: 100.0 mg/kg/injection, schedule: Q01DX010 (ip), vehicle: saline",96 % of control
same,T/C,"dose: 200.0 mg/kg/injection, schedule: Q01DX010 (ip), vehicle: saline",92 % of control
CCCCn1cnc2c(=S)nc[nH]c21,T/C,"dose: 32.0 mg/kg/injection, schedule: Q01DX010 (ip), vehicle: saline",96 % of control
same,T/C,"dose: 64.0 mg/kg/injection, schedule: Q01DX010 (ip), vehicle: saline",92 % of control and 96 % of control
same,T/C,"dose: 128.0 mg/kg/injection, schedule: Q01DX010 (ip), vehicle: saline",96 % of control and 100 % of control
CS(=O)(=O)OCCCl,T/C,"dose: 18.8 mg/kg/injection, schedule: Q01DX010 (ip), vehicle: saline",89 % of control
same,T/C,"dose: 37.5 mg/kg/injection, schedule: Q01DX010 (ip), vehicle: saline",100 % of control
same,T/C,"dose: 75.0 mg/kg/injection, schedule: Q01DX010 (ip), vehicle: saline",92 % of control
C[C@]12C[C@H](O)[C@H]3[C@@H](CCC4=CC(=O)CC[C@@]43C)[C@@H]1CC[C@@H]2C(=O)CO,T/C,[11],100 % of control
same,T/C,"dose: 25.0 mg/kg/injection, schedule: Q01DX010 (sc), vehicle: steriod suspending solution",100 % of control
same,T/C,"dose: 50.0 mg/kg/injection, schedule: Q01DX010 (sc), vehicle: steriod suspending solution",100 % of control
same,T/C,"dose: 100.0 mg/kg/injection, schedule: Q01DX010 (sc), vehicle: steriod suspending solution",100 % of control
O=C(OCC1OC(n2cnc3c(=S)nc[nH]c32)C(OC(=O)c2ccccc2)C1OC(=O)c1ccccc1)c1ccccc1 (stereo unspecified),T/C,"dose: 7.8 mg/kg/injection, schedule: Q01DX010 (ip), vehicle: saline",87 % of control
same,T/C,[12],91 % of control
same,T/C,[13],87 % of control
same,T/C,[14],100 % of control
same,T/C,[15],91 % of control
same,T/C,[16],87 % of control
C[C@]12CCC(=O)C[C@H]1CC[C@@H]1[C@@H]2CC[C@@]2(C)[C@H]1CC[C@]2(C)O,T/C,"dose: 50.0 mg/kg/injection, schedule: Q01DX010 (sc), vehicle: saline",104 % of control
same,T/C,"dose: 100.0 mg/kg/injection, schedule: Q01DX010 (sc), vehicle: saline",100 % of control
same,T/C,"dose: 200.0 mg/kg/injection, schedule: Q01DX010 (sc), vehicle: saline",100 % of control
same,T/C,"dose: 400.0 mg/kg/injection, schedule: Q01DX010 (sc), vehicle: saline",108 % of control
O=C1CCC(N2C(=O)c3ccccc3C2=O)C(=O)N1 (stereo unspecified),T/C,[13],100 % of control
same,T/C,[14],96 % of control
same,T/C,[15],96 % of control
same,T/C,[16],96 % of control
CC[C@]1(O)C[C@H]2CN(CCc3c([nH]c4ccccc34)[C@@](C(=O)OC)(c3cc4c(cc3OC)N(C=O)[C@H]3[C@@](O)(C(=O)OC)[C@H](OC(C)=O)[C@]5(CC)C=CCN6CC[C@]43[C@@H]65)C2)C1,T/C,"dose: 15.6 micrograms/kg/injection, schedule: Q01DX010 (ip), vehicle: saline",117 % of control
same,T/C,"dose: 31.3 micrograms/kg/injection, schedule: Q01DX010 (ip), vehicle: saline",114 % of control
CN(C)c1nc(N(C)C)nc(N(C)C)n1,T/C,"dose: 9.4 mg/kg/injection, schedule: Q01DX010 (ip), vehicle: saline",103 % of control and 111 % of control
same,T/C,"dose: 150.0 mg/kg/injection, schedule: Q01DX010 (ip), vehicle: saline",103 % of control and 107 % of control
CC(=O)O[C@]1(C(C)=O)CC[C@H]2[C@@H]3C[C@H](C)C4=CC(=O)C=C[C@]4(C)[C@@]3(F)[C@@H](O)C[C@@]21C,T/C,[11],88 % of control
Clc1ccc(C(c2ccccc2Cl)C(Cl)Cl)cc1 (stereo unspecified),T/C,"dose: 62.5 mg/kg/injection, schedule: Q01DX010 (sc), vehicle: steriod suspending solution",100 % of control
same,T/C,"dose: 125.0 mg/kg/injection, schedule: Q01DX010 (sc), vehicle: steriod suspending solution",100 % of control
same,T/C,"dose: 250.0 mg/kg/injection, schedule: Q01DX010 (sc), vehicle: steriod suspending solution",96 % of control and 100 % of control
same,T/C,"dose: 500.0 mg/kg/injection, schedule: Q01DX010 (sc), vehicle: steriod suspending solution",100 % of control
CC(=O)Nc1ccc2nc3ccc(NC(C)=O)cc3[n+](-c3ccccc3)c2c1,T/C,[13],100 % of control
same,T/C,[14],103 % of control
same,T/C,[16],88 % of control
Oc1cc(CN(CCCl)CCCl)c(O)cc1CN(CCCl)CCCl,T/C,[17],117 % of control
CS(=O)(=O)OCCC(=O)N1CCN(C(=O)CCOS(C)(=O)=O)CC1,T/C,"dose: 3.13 mg/kg/injection, schedule: Q01DX010 (ip), vehicle: saline",107 % of control
same,T/C,[8],103 % of control
same,T/C,[9],119 % of control
same,T/C,[10],120 % of control
CCN(CC)CCNc1ccc(C)c2sc3ccccc3c(=O)c12,T/C,[3],108 % of control
same,T/C,"dose: 20.0 mg/kg/injection, schedule: Q01DX010 (ip), vehicle: saline",108 % of control
same,T/C,[1],112 % of control
same,T/C,"dose: 80.0 mg/kg/injection, schedule: Q01DX010 (ip), vehicle: saline",100 % of control
N=C(N)SCc1c2ccccc2c(CSC(=N)N)c2ccccc12,T/C,[2],100 % of control
same,T/C,[3],96 % of control
CCOC(C)C(/C=N/NC(N)=S)=NNC(N)=S (stereo unspecified),T/C,"dose: 15.0 mg/kg/injection, schedule: Q01DX010 (ip), vehicle: saline",91 % of control
same,T/C,"dose: 30.0 mg/kg/injection, schedule: Q01DX010 (ip), vehicle: saline",100 % of control
same,T/C,"dose: 60.0 mg/kg/injection, schedule: Q01DX010 (ip), vehicle: saline",100 % of control
same,T/C,"dose: 120.0 mg/kg/injection, schedule: Q01DX010 (ip), vehicle: saline",95 % of control
O=C(O)c1[nH]c(=O)[nH]c(=O)c1F,T/C,[18],86 % of control
C=C(C(=O)OC1CC2CCC(C1)N2C)c1ccccc1 (stereo unspecified),T/C,[2],100 % of control
O=CN(O)CC(=O)O,T/C,[12],93 % of control
same,T/C,[13],93 % of control
same,T/C,[14],96 % of control
same,T/C,[15],93 % of control
S=P(N1CCOCC1)(N1CC1)N1CC1,T/C,[18],100 % of control and 103 % of control
same,T/C,[17],92 % of control and 100 % of control
Cn1cnc([N+](=O)[O-])c1Sc1nc(N)nc2nc[nH]c12,T/C,[18],100 % of control and 108 % of control
same,T/C,[17],100 % of control and 108 % of control
same,T/C,[2],88 % of control
same,T/C,[3],88 % of control
O=C(Nc1ccc(C2=NCCN2)cc1)c1cc(Cl)cc(C(=O)Nc2ccc(C3=NCCN3)cc2)c1,T/C,"dose: 140.0 mg/kg/injection, schedule: Q01DX010 (ip), vehicle: saline",96 % of control and 100 % of control
same,T/C,"dose: 210.0 mg/kg/injection, schedule: Q01DX010 (ip), vehicle: saline",92 % of control and 107 % of control
same,T/C,"dose: 315.0 mg/kg/injection, schedule: Q01DX010 (ip), vehicle: saline",96 % of control and 115 % of control
same,T/C,"dose: 473.0 mg/kg/injection, schedule: Q01DX010 (ip), vehicle: saline",103 % of control and 111 % of control
N[C@@H](Cc1ccc(N(CCCl)CCCl)cc1)C(=O)O,T/C,[6],119 % of control and 123 % of control
same,T/C,"dose: 1.0 mg/kg/injection, schedule: Q01DX010 (ip), vehicle: other",88 % of control
same,T/C,[7],119 % of control and 123 % of control
same,T/C,[4],161 % of control
